Measurements published in patent publication US7875625B2, “Cyclohepta[b]pyridine-3-carbonylguanidine derivative and pharmaceutical product containing same” (Toa Eiyo Ltd., priority 2005, dated 2011).

Assays:
male mice = experiment: Toxicity test with 2-days repeated intraperitoneal administration in mouse; assay type: in vivo; conditions: equivalent of 300 mg/kg control compound intraperitoneally once a day for 2 days
Protocol: For three male mice in each group, 300 mg/kg of the Control Compound (an amount calculated excluding salts), or an equivalent amount of the Inventive Compound 2, 4, 6, 7 or 12 were intraperitoneally administered once a day for 2 days, and a histopathological tests were performed. The Control Compound, and the Inventive Compounds 2, 4 and 6 were suspended in a 0.5% tragacanth gum solution, and the Inventive Compound 7 was suspended in a 10 DMSO-containing 0.5% tragacanth gum solution, while the Inventive Compound 12 was suspended in olive oil. For the histopathological test, in order to make a more thorough examination of central nervous toxicity, the brain was examined after whole body was subjected to perfusion fixation with a 4% formaldehyde in neutral phosphate buffer as a fixing solution using a liquid transporting pump under pentobarbital sodium anesthesia.

[1] = Metabolic stability test in rat (generation of control compound in plasma); assay type: in vivo; conditions: male SD rats; for Plasma concentration of the control compound, after 5 min / Plasma concentration of the control compound, after 15 min / Plasma concentration of the control compound, after 30 min / Plasma concentration of the control compound, after 60 min / Plasma concentration of the control compound, after 120 min: equivalent of 1 mg/kg control compound via tail vein, LC/MS/MS; for Decomposition into the Control Compound in vivo (in words): tail vein, plasma 5-120 min
Text: The compound represented by Formula (1) of the present invention has a structure in which the hydroxyl group on the 9-position of a 9-hydroxymethyl-cyclohepta[b]pyridine-3-carbonylguanidine derivative is converted to a specific substituent. However, if the compound is metabolized in vivo to remove the specific substituent from the compound, there may be generated the original 9-hydroxymethyl-cyclohepta[b]pyridine-3-carbonylguanidine derivative, which has toxic effects on the central nervous system. Thus, the inventive compounds as synthesized in Examples were administered in vivo to study whether the control compound, which was the corresponding 9-hydroxymethyl product, was generated.
Male SD rats (7 weeks old) were administered at 1 mg/kg (an amount calculated excluding salts) of the control compound, an equivalent amount of the Inventive Compound 2, 4, 6, 7 or 12, or Reference Compound 20, through the tail vein. After administration, about 0.2 mL of blood samples were collected after 5, 15, 30, 60 and 120 minutes, and the blood samples were centrifuged at 4° C. at a speed of rotation of 15000 for 15 minutes, thus to separate the supernatant plasma. The concentration of the control compound in the plasma was measured by LC/MS/MS. The measurement results were shown as +++ when the detected plasma concentration of the control compound is 200 ng/mL or greater; ++ for more than 100 ng/mL and less than 200 ng/mL; + for more than 20 ng/mL and less than 100 ng/mL; and − for less than 20 ng/mL or no detection.

Beagle dogs = experiment: Toxicity test after 4-days repeated intravenous administration in beagle dogs; assay type: in vivo, dog; conditions: equivalent of 30 mg/kg control compound intravenously once a day for 4 days
Protocol: With one male and one female dogs in each group, 30 mg/kg of the Control Compound dissolved in physiological saline (an amount calculated excluding salts), or an equivalent amount of the Inventive Compound 2, 4, 6 or 8 was repeatedly administered intravenously once a day for 4 days, and general symptom observation and pharmacological histopathologic examination were performed.

[2] = tested on: reperfusion-induced arrhythmia upon myocardial ischemia; experiment: Reperfusion-induced arrhythmia inhibitory action test; assay type: in vivo, rat; conditions: male SD rats, 1 mL/kg intravenous
Protocol: Subsequently, in evaluation of the in vivo NHE inhibitory action, the effect of the test compound on reperfusion-induced arrhythmia upon myocardial ischemia was evaluated according to the method of Aihara et al. [European Journal of Pharmacology, Vol. 404, p. 221-229 (2000)]. Under anesthesia using pentobarbital sodium (60 mg/kg, intraperitoneal administration), cannulae were inserted into trachea, femoral vein and carotid artery of male SD rats ([…]) for artificial ventilation, drug administration and blood pressure measurement, respectively. The blood pressure was measured using a strain pressure amplifier via a pressure transducer, while the heart rate was measured from the blood pressure pulse wave using a cardiotachometer. Furthermore, an electrocardiogram (lead II) was measured from the electrodes attached to each four limbs. Next, under artificial ventilation, left thoracotomy was performed and a snare (5-0 nylon) was loosely placed around a blood vessel which was about 3 mm apart from the origin of the left coronary artery. Thereafter, it was confirmed that arrhythmia was not occurred for 10 minutes, and then the snare was fastened to induce local myocardial ischemia. Furthermore, after 4 minutes of myocardial ischemia, the compound was intravenously administered for 1 minute, and after 5 minutes of myocardial ischemia, the snare was loosened, then the arrhythmia occurred after reperfusion was recorded and analyzed with an arrhythmia analyzer (Softron Co., Ltd.), thereby the anti-arrhythmic action of the compound was evaluated. […] The control group was administered with physiological saline.
With regard to the ventricular fibrillation (Vf) which occurred within 10 minutes after reperfusion (in the cases of halfway death, up to the time point where cardiac arrest was confirmed), arrhythmia analysis was performed according to the Guidelines for Lambeth Convention [Cardiovascular research, Vol. 22, p. 447-455, 1988], and evaluation was made in terms of the frequency of Vf occurrence, cumulative duration time of Vf, and the mortality.
The frequency of Vf occurrence, cumulative duration of Vf, and the mortality for the respective test compounds are presented in Table 2.

Na^+/H^+ exchanger (NHE) = target: T1, Na^+/H^+ exchanger (NHE) (Rattus norvegicus, UniProt P26431); experiment: NHE inhibitory effect test (swelling of rat platelets induced by sodium propionate); assay type: cell-based; conditions: rat platelet-rich plasma, sodium propionate buffer pH 6.7; 300 μM Amiloride taken as 100% inhibition; Probit method
T1 construct: from tissue; host or cells: platelet-rich plasma from Wistar rat blood
Protocol: The NHE inhibitory activity was measured according to the method by Scholz et al. [British Journal of Pharmacology, Vol. 109, p. 562-568 (1993)], taking the swelling of rat platelets induced by sodium propionate as an index.
Under etherization, blood was collected (8 mL) from the abdominal aorta of a Wistar rat, and 1 mL of a citrate dextrose solution as an anticoagulant was added. The blood sample was immediately centrifuged at 90×g for 10 minutes, and then the collected supernatant was taken as platelet-rich plasma. Subsequently, to 250 μL of a 140 mM sodium propionate buffer solution containing the test compound dissolved in dimethylsulfoxide (pH 6.7, final dimethylsulfoxide concentration 1%), the platelet-rich plasma prepared in the above (number of platelet; 10×10^6/50 μL) was added, and the decrease in the absorbance associated with the swelling of platelets was measured over time with a Hematracer (NKK Corp.).
The rate of decrease in the absorbance at 20 seconds after the addition of the platelet-rich plasma was taken as the NHE activity, and the inhibitory activity of the respective compounds was expressed as a relative activity, while the action obtained upon addition of 300 μM of Amiloride was taken as 100% inhibition.
In addition, the test results were obtained by calculating the concentration at which the inhibitory activity of the test compound becomes 50% (IC50 value), by a Probit method.

[3] = Comparative test for transferability to the brain in rat; assay type: in vivo; conditions: male SD rats, 50 mg/kg via tail vein
Protocol: To male SD rats (6 weeks old), the Control Compound or the Inventive Compound 2 was administered through the tail vein in an amount of 50 mg/kg. After administration, whole blood samples were collected over time from the abdominal aorta under etherization, and the brain tissues were extracted immediately. The brain tissues were lightly washed off to remove the blood attached around with physiological saline, and subsequently the tissues were frozen in liquid nitrogen and preserved at −30° C. until analyzed. The blood was centrifuged at 4° C. at a rotation speed of 15000 for 15 minutes to separate the supernatant plasma, and was preserved at −30° C. until analyzed. The brain tissues were thawed by standing at ambient temperature, and then the wet weight was measured. Distilled water was added in an amount five times of the wet weight, and a suspension was prepared using a Polytron homogenizer. The measurement of the test compound concentration in the plasma and the brain tissues was performed by LC/MS/MS. The transferability of the drug to the brain was calculated by dividing the drug concentration in the brain tissues by the plasma concentration obtained at the same time.

[4] = 3.62 mmol/L, within 10 minutes after reperfusion

T1 sequence (P26431 whole entry): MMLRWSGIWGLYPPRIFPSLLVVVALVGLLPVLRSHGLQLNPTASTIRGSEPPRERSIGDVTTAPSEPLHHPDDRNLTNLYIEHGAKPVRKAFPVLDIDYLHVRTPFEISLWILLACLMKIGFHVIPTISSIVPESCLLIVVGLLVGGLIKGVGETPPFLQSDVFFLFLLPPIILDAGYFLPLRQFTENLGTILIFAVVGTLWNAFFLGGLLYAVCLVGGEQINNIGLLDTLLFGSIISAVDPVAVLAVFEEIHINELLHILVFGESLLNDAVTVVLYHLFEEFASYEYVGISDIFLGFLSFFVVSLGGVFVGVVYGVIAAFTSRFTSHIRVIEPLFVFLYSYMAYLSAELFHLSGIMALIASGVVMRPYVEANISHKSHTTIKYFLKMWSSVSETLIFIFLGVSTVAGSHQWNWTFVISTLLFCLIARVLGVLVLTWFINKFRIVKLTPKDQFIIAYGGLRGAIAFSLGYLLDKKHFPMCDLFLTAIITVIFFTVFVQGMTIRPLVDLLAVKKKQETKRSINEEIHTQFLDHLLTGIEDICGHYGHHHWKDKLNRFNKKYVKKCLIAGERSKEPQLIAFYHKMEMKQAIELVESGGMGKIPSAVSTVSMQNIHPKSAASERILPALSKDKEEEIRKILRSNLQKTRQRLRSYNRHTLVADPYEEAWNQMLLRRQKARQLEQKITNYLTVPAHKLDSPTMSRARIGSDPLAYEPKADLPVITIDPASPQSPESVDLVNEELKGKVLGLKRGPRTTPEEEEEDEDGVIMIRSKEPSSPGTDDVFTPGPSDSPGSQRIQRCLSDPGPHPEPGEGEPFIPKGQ

SMILES | Histopathological finding in the brain (male mice) | Plasma concentration of the control compound, after 5 min [1] | Plasma concentration of the control compound, after 15 min [1] | Plasma concentration of the control compound, after 30 min [1] | Plasma concentration of the control compound, after 60 min [1] | Plasma concentration of the control compound, after 120 min [1] | Decomposition into the Control Compound in vivo (in words) [1] | General condition (symptom observation) (Beagle dogs) | Pathologic examination of the brain (Beagle dogs) | Cumulative duration of Vf [2, 4] [s] | Frequency of Vf occurrence [2, 4] [%] | Mortality [2, 4] [%] | IC50 (Na^+/H^+ exchanger (NHE)) [nM] | Cumulative duration of Vf ([2]; 1.09 mmol/L, 5 animals) [s] | Frequency of Vf occurrence ([2]; 1.09 mmol/L, 5 animals) [%] | Mortality ([2]; 1.09 mmol/L, 5 animals) [%] | Concentration Intracerebral/Plasma, after 15 min ([3]; 15 min) | Concentration Intracerebral/Plasma, after 30 min ([3]; 30 min)
Cc1nc2c(cc1C(=O)NC(=N)N)CCCCC2CS(=O)(=O)[O-].[Na+] (stereo not shown) [Inventive Compound 4, 3-Guanidinocarbonyl-2-methyl-6,7,8,9-tetrahydro-5H-cyclohepta[b]pyridin-9-ylmethanesulfonic acid sodium salt] | any histologic finding which could be caused by drug administration was not recognized | − (− for less than 20 ng/mL or no detection) | − (− for less than 20 ng/mL or no detection) | − (− for less than 20 ng/mL or no detection) | − (− for less than 20 ng/mL or no detection) | − (− for less than 20 ng/mL or no detection) | not detected at any time point | only vomiting was recognized | any histologic finding which could be caused by drug administration was not recognized | 25.3 | 60 | 0 | 211 | – | – | – | – | –
Cc1nc2c(cc1C(=O)NC(=N)N)CCCCC2COC(=O)NCCOS(=O)(=O)[O-].[Na+] (stereo not shown) [Inventive Compound 6, 2-(3-Guanidinocarbonyl-2-methyl-6,7,8,9-tetrahydro-5H-cyclohepta[b]pyridin-9-ylmethyloxycarbonylamino)ethyl sulfate sodium salt] | any histologic finding which could be caused by drug administration was not recognized | − (− for less than 20 ng/mL or no detection) | − (− for less than 20 ng/mL or no detection) | − (− for less than 20 ng/mL or no detection) | − (− for less than 20 ng/mL or no detection) | − (− for less than 20 ng/mL or no detection) | not detected at any time point | only vomiting was recognized | any histologic finding which could be caused by drug administration was not recognized | – | – | – | 142 | 23.3 | 20 | 0 | – | –
CS(=O)(=O)O.Cc1nc2c(cc1C(=O)NC(=N)N)CCCCC2CO (stereo not shown) [Control Compound, 9-Hydroxymethyl-2-methyl-6,7,8,9-tetrahydro-5H-cyclohepta[b]pyridine-3-carbonylguanidine methanesulfonic acid salt, reference compound] | vacuolation was recognized in the cerebellar nuclei and vestibular nuclei | +++ (+++ when the detected plasma concentration of the control compound is 200 ng/mL or greater) | ++ (++ for more than 100 ng/mL and less than 200 ng/mL) | + (+ for more than 20 ng/mL and less than 100 ng/mL) | + (+ for more than 20 ng/mL and less than 100 ng/mL) | − (− for less than 20 ng/mL or no detection) | – | vomiting, salivation, and decreases in locomotor activity, staggering gait and ananastasia | necrosis/chromatolysis of nerve cells, swelling of axons and vacuolation of myelin sheath | 30.2 | 50 | 25 | 33.4 | – | – | – | 1.64 | 2.33
